ChEMBL document CHEMBL5500381, “Antiviral drug discovery: Pyrimidine entry inhibitors for Zika and dengue viruses” (Eur J Med Chem, 2024)
Values after ≈ are worked out from the molar mass of the structure shown.

Tests used:
[1] = Cytotoxicity against African green monkey Vero cells assessed as cell viability measured after 72 hrs by MTT assay; format: toxicity, cell-based; details: chlorocebus sabaeus
[2] = tested on: dengue virus type 2; assay: Anti-viral activity against DENV-2 Thailand/16681/1984 strain infected in african green monkey Vero cells at 0.1 MOI assessed as reduction in virus yield measured after 48 hrs by virus reduction assay; format: functional, organism-based; details: Thailand/16681/1984, Vero
[3] = Selectivity index, ratio of CC50 for cytotoxicity against African green monkey Vero cells to EC50 for anti-viral activity against DENV-2 Thailand/16681/1984 strain; format: toxicity, cell-based; details: read-out: Selectivity Index
[4] = tested on: Zika virus; assay: Anti-viral activity against ZIKV Argentine strain INEVH116141 infected in african green monkey Vero cells at 0.1 MOI assessed as reduction in virus yield measured after 48 hrs by virus reduction assay; format: functional, organism-based
[5] = Selectivity index, ratio of CC50 for cytotoxicity against African green monkey Vero cells to EC50 for anti-viral activity against ZIKV Argentine strain INEVH116141; format: toxicity, cell-based; details: read-out: Selectivity Index
[6] = Solubility of the compound in phosphate-buffered saline solution (PBS,pH 7.4) incubated for 24 hrs by shake-flask method; format: physicochemical
[7] = Solubility of the compound in simulated intestinal fluid (SIF,pH 6.8) incubated for 24 hrs by shake-flask method; format: ADME
[8] = Solubility of the compound in simulated gastric fluid (SGF,pH 1.2) incubated for 24 hrs by shake-flask method; format: ADME

SMILES: Nc1ccc(-c2ccc(Nc3cc(C(F)(F)F)nc(NCCN4CCCCC4)n3)cc2)cc1
- CC50 at 72 h [1]: 17.8 µM
- EC50 [2]: > 10 µM
- selectivity ratio [3]: < 2
- EC50 [4]: > 10 µM
- selectivity ratio [5]: < 2

SMILES: Fc1cc(Cl)ccc1CNc1cc(C(F)(F)F)nc(NCCN2CCCCC2)n1
- CC50 at 72 h [1]: 9.07 µM

SMILES: FC(F)(F)c1cc(NCc2cccnc2)nc(NCCN2CCCCC2)n1
- CC50 at 72 h [1]: > 200 µM
- EC50 [2]: > 50 µM
- selectivity ratio [3]: < 4
- EC50 [4]: > 50 µM
- selectivity ratio [5]: < 4

SMILES: c1ccc(-c2ccc(Nc3ccnc(NCCN4CCCCC4)n3)cc2)cc1
- solubility thermodynamic at 24 h [6]: 32 µg/mL (≈ 85.7 µM)
- solubility thermodynamic at 24 h [7]: 324 µg/mL (≈ 867 µM)
- solubility thermodynamic at 24 h [8]: 108 µg/mL (≈ 289 µM)

SMILES: CC1(C)CC(Nc2nccc(Nc3ccc(-c4ccccc4)cc3)n2)CC(C)(C)N1
- solubility thermodynamic at 24 h [6]: 93 µg/mL (≈ 232 µM)
- solubility thermodynamic at 24 h [7]: 580 µg/mL (≈ 1440 µM)
- solubility thermodynamic at 24 h [8]: 2280 µg/mL (≈ 5690 µM)

SMILES: O=C(Nc1cc(C(F)(F)F)nc(NCCN2CCCCC2)n1)c1ccc(Cl)cc1
- CC50 at 72 h [1]: 20.8 µM
- EC50 [2]: > 20 µM
- selectivity ratio [3]: < 1.05
- EC50 [4]: > 20 µM
- selectivity ratio [5]: < 1.05

SMILES: CC1(C)CC(Nc2nc(C#N)cc(Nc3ccc(-c4ccccc4)cc3)n2)CC(C)(C)N1
- CC50 at 72 h [1]: 7.5 µM
- EC50 [2]: 1.96 µM
- selectivity ratio [3]: 3.82
- EC50 [4]: 4.4 µM
- selectivity ratio [5]: 1.7

SMILES: FC(F)(F)c1cc(NCc2ccc(-c3ccccc3)cc2)nc(NCCN2CCCCC2)n1
- CC50 at 72 h [1]: 36.9 µM
- EC50 [2]: > 20 µM
- selectivity ratio [3]: < 2
- EC50 [4]: > 20 µM
- selectivity ratio [5]: < 2

SMILES: FC(F)(F)c1cc(Nc2ccc(Cl)cc2)nc(NCCN2CCCCC2)n1
- CC50 at 72 h [1]: 18.8 µM
- EC50 [2]: 10 µM
- selectivity ratio [3]: 1.88
- EC50 [4]: 10 µM
- selectivity ratio [5]: 1.88

SMILES: FC(F)(F)c1cc(Nc2ccc(C3CCCCC3)cc2)nc(NCCN2CCCCC2)n1
- CC50 at 72 h [1]: 8.39 µM

SMILES: N#Cc1cc(Nc2ccc(-c3ccccc3)cc2)nc(NCCN2CCCCC2)n1
- CC50 at 72 h [1]: 25.4 µM
- EC50 [2]: 8.06 µM
- selectivity ratio [3]: 3.15
- EC50 [4]: 4.31 µM
- selectivity ratio [5]: 5.89

SMILES: Fc1ccc(CNc2cc(C(F)(F)F)nc(NCCN3CCCCC3)n2)cc1
- CC50 at 72 h [1]: 47.6 µM
- EC50 [2]: 16.1 µM
- selectivity ratio [3]: 2.96
- EC50 [4]: 16.8 µM
- selectivity ratio [5]: 2.84
